Source: patent US8415342B2, “Besifloxacin ophthalmic composition for the treatment or control of infection” (Bausch & Lomb Incorporated, priority 2008, dated 2013)
≈ marks a conversion by molar mass, not a printed value. Read-outs that look alike come from different tables or passages of the source.

Columns and labels:
Format in all cases: cell-based
[1] = test system: baseline pathogens of bacterial conjunctivitis patients; assay: MIC of baseline clinical trial isolates, Studies 373, 433, 434 (all species)
[2] = test system: CDC coryneform group G; assay: MIC of clinical trial isolates, Studies 373, 433, 434; conditions: N 29
Procedure: (§1) PFGE testing was performed per standard procedures.
(§2) The antibacterial susceptibility profile of each Visit 1 bacterial isolate was determined for besifloxacin and other antimicrobials.

[3] = test system: H. influenzae; assay: as above; conditions: Haemophilus influenzae, all phenotypes, N 344
Procedure: as §1, §2

[4] = test system: S. mitis group; assay: as above; conditions: Streptococcus mitis group, N 45
Procedure: as §1, §2

[5] = test system: S. pneumoniae; assay: as above; conditions: Streptococcus pneumoniae, all phenotypes, N 302
Procedure: as §1, §2

[6] = test system: Streptococcus oralis; assay: as above; conditions: N 18
Procedure: as §1, §2

[7] = test system: S. aureus; assay: as above; conditions: Staphylococcus aureus
[8] = test system: S. epidermidis; assay: as above; conditions: Staphylococcus epidermidis
[9] = test system: Corynebacterium pseudodiphtheriticum; assay: as above; conditions: N 8
[10] = test system: Corynebacterium striatum; assay: as above; conditions: N 8
[11] = test system: Staphylococcus hominis; assay: as above; conditions: N 9
[12] = test system: Staphylococcus lugdunensis; assay: as above; conditions: N 8
[13] = test system: Streptococcus mitis; assay: as above; conditions: Streptococcus mitis (listed separately from S. mitis group), N 20
Procedure: PFGE testing was performed per standard procedures. […] Analysis Populations

[14] = test system: Streptococcus salivarius; assay: as above; conditions: N 9
[15] = test system: S. pneumoniae topoisomerase mutants; assay: MIC against defined topoisomerase mutants; conditions: Streptococcus pneumoniae
[16] = test system: S. aureus topoisomerase mutants; assay: MIC against defined topoisomerase mutants; conditions: Staphylococcus aureus
[17] = test system: E. coli topoisomerase mutants; assay: MIC against defined topoisomerase mutants; conditions: Escherichia coli
Procedure: Furthermore, an experiment was conducted to assess the mechanism of action of besifloxacin in S. pneumoniae, S. aureus, and E. coli via step selections for isolates with decreased susceptibility to besifloxacin, as well as by testing for altered susceptibilities of ciprofloxacin-resistant variants of all three species containing genetically defined mutations in the quinolone resistance determining regions (QRDRs) of structural genes encoding DNA gyrase and topoisomerase IV (Table 2).

[18] = test system: H. influenzae; assay: MIC and MBC:MIC ratio, recent ocular isolates; conditions: H. influenzae (N = 40), recent ocular isolates
Excerpt: (§3) The success of in vivo antimicrobial action depends to a large extent on the host's defense mechanisms, which ultimately sequester and kill the microorganisms that have been reduced by the bacteriostatic/bactericidal action of the antibacterial agent. Thus, it is also of interest to profile the bactericidal activity of antimicrobial agents. The assessment of in vitro bactericidal activity can be accomplished in multiple ways, for example, the time-kill method or the determination of the minimum bactericidal concentration (MBC). […] Bactericidal agents are characterized by low MBC:MIC ratios.

[19] = test system: S. epidermidis; assay: MIC and MBC:MIC ratio, recent ocular isolates; conditions: Staphylococcus epidermidis; S. epidermidis (N = 15), recent ocular isolates
Excerpt: as §3

[20] = test system: S. aureus; assay: MIC and MBC:MIC ratio, recent ocular isolates; conditions: Staphylococcus aureus; S. aureus (N = 30), recent ocular isolates
[21] = test system: S. pneumoniae; assay: MIC and MBC:MIC ratio, recent ocular isolates; conditions: S. pneumoniae (N = 35), recent ocular isolates
[22] = test system: Staphylococcus haemolyticus; assay: MIC, CLSI broth microdilution, clinical isolates; conditions: Staphylococcus haemolyticus (N = 101)
[23] = test system: Staphylococcus warneri; assay: MIC, CLSI broth microdilution, clinical isolates; conditions: Staphylococcus warneri (N = 50)
[24] = test system: Staphylococcus hominis; assay: MIC, CLSI broth microdilution, clinical isolates; conditions: Staphylococcus hominis (N = 50)
[25] = test system: Lancefield group C, F, G streptococci; assay: MIC, CLSI broth microdilution, clinical isolates; conditions: G streptococci (N = 50)
[26] = test system: Viridans streptococci; assay: MIC, CLSI broth microdilution, clinical isolates; conditions: Viridans streptococci (N = 156)
[27] = test system: Citrobacter koseri; assay: MIC, CLSI broth microdilution, clinical isolates; conditions: Citrobacter koseri (N = 100)
[28] = test system: Klebsiella oxytoca; assay: MIC, CLSI broth microdilution, clinical isolates; conditions: Klebsiella oxytoca (N = 50)
[29] = test system: Legionella pneumophila; assay: microbe, parasite or virus in culture; conditions: Legionella pneumophila
[30] = test system: Moraxella catarrhalis; assay: MIC, CLSI broth microdilution, clinical isolates; conditions: Moraxella catarrhalis (N = 101)
[31] = test system: Morganella morganii; assay: MIC, CLSI broth microdilution, clinical isolates; conditions: Morganella morganii (N = 51)

## C[C@H]1COc2c(N3CCN(C)CC3)c(F)cc3c(=O)c(C(=O)O)cn1c23 [LEVO]
[1]; All organisms, N 1324
  MIC50: 0.25 µg/mL
  MIC90: 1 µg/mL
[1]; Gram-negative, N 438
  MIC50: 0.03 µg/mL
  MIC90: 0.125 µg/mL
  MIC Range: ≦0.004-8 μg/mL
[1]; Gram-positive, N 886
  MIC50: 0.5 µg/mL
  MIC90: 2 µg/mL
[2]
  MIC50: 0.06 µg/mL
  MIC90: 1 µg/mL
[3]
  MIC50: 0.03 µg/mL
  MIC90: 0.03 µg/mL
  MIC Range: ≦0.004-1 μg/mL
[4]
  MIC50: 1 µg/mL
  MIC90: 2 µg/mL
[5]
  MIC50: 0.5 µg/mL
  MIC90: 1 µg/mL
  MIC Range: 0.125 to 2 µg/mL
[6]
  MIC50: 1 µg/mL
  MIC90: 2 µg/mL
  MIC Range: 0.125 to 2 µg/mL
[7]; all phenotypes, N 190
  MIC50: 0.25 µg/mL
  MIC90: 8 µg/mL
[8]; all phenotypes, N 111
  MIC50: 0.25 µg/mL
  MIC90: 8 µg/mL
[9]
  MIC50: 0.5 µg/mL
  MIC Range: 0.06 to 1 µg/mL
[10]
  MIC50: 0.06 µg/mL
  MIC Range: 0.03 to 4 µg/mL
[11]
  MIC50: 0.125 µg/mL
  MIC Range: 0.125 to 4 µg/mL
[12]
  MIC50: 0.25 µg/mL
  MIC Range: 0.25 to 2 µg/mL
[13]
  MIC50: 1 µg/mL
  MIC90: 1 µg/mL
  MIC Range: 0.5 to 2 µg/mL
[14]
  MIC50: 1 µg/mL
  MIC Range: 1 to 2 µg/mL

## N[C@@H]1CCCCN(c2c(F)cc3c(=O)c(C(=O)O)cn(C4CC4)c3c2Cl)C1 [BESI]
[1]; All organisms, N 1324
  MIC50: 0.06 µg/mL
  MIC90: 0.25 µg/mL
  MIC Range: 0.008 to 8 µg/mL
[1]; Gram-negative, N 438
  MIC50: 0.03 µg/mL
  MIC90: 0.5 µg/mL
  MIC Range: 0.008 to 8 µg/mL
[1]; Gram-positive, N 886
  MIC50: 0.06 µg/mL
  MIC90: 0.25 µg/mL
  MIC Range: 0.008 to 8 µg/mL
[2]
  MIC50: 0.015 µg/mL
  MIC90: 0.125 µg/mL
  MIC Range: 0.008 to 2 µg/mL
[3]
  MIC50: 0.03 µg/mL
  MIC90: 0.06 µg/mL
  MIC Range: 0.008 to 0.5 µg/mL
[4]
  MIC50: 0.125 µg/mL
  MIC90: 0.25 µg/mL
  MIC Range: 0.03 to 1 µg/mL
[5]
  MIC50: 0.06 µg/mL
  MIC90: 0.125 µg/mL
  MIC Range: 0.03 to 0.25 µg/mL
[6]
  MIC50: 0.125 µg/mL
  MIC90: 0.25 µg/mL
  MIC Range: 0.015 to 0.25 µg/mL
[7]; all phenotypes, N 190
  MIC50: 0.03 µg/mL
  MIC90: 0.5 µg/mL
  MIC Range: 0.008 to 8 µg/mL
[8]; all phenotypes, N 111
  MIC50: 0.06 µg/mL
  MIC90: 0.5 µg/mL
  MIC Range: 0.03 to 4 µg/mL
[9]
  MIC50: 0.25 µg/mL
  MIC Range: 0.015 to 0.25 µg/mL
[10]
  MIC50: 0.015 µg/mL
  MIC Range: 0.015 to 0.25 µg/mL
[11]
  MIC50: 0.06 µg/mL
  MIC Range: 0.03 to 0.5 µg/mL
[12]
  MIC50: 0.125 µg/mL
  MIC Range: 0.06 to 0.5 µg/mL
[13]
  MIC50: 0.125 µg/mL
  MIC90: 0.125 µg/mL
  MIC Range: 0.06 to 0.25 µg/mL
[14]
  MIC50: 0.125 µg/mL
  MIC Range: 0.06 to 0.25 µg/mL

## CC[C@H]1OC(=O)[C@H](C)[C@@H](O[C@H]2C[C@@](C)(OC)[C@@H](O)[C@H](C)O2)[C@H](C)[C@@H](O[C@@H]2O[C@H](C)C[C@H](N(C)C)[C@H]2O)[C@](C)(O)C[C@@H](C)CN(C)[C@H](C)[C@@H](O)[C@]1(C)O [AZITH]
[1]; All organisms, N 1324
  MIC50: 2 µg/mL
  MIC90: >8 µg/mL
[1]; Gram-negative, N 438
  MIC50: 2 µg/mL
  MIC90: >8 µg/mL
[1]; Gram-positive, N 886
  MIC50: 1 µg/mL
  MIC90: >8 µg/mL
[2]
  MIC90: >8 µg/mL
[3]
  MIC50: 2 µg/mL
  MIC90: 4 µg/mL
[4]
  MIC50: 2 µg/mL
  MIC90: 8 µg/mL
[5]
  MIC90: >8 µg/mL
[6]
  MIC50: 4 µg/mL
  MIC90: >8 µg/mL
[7]; all phenotypes, N 190
  MIC50: 2 µg/mL
  MIC90: >8 µg/mL
[8]; all phenotypes, N 111
  MIC50: 1 µg/mL
  MIC90: >8 µg/mL
[9]
  MIC50: >8 µg/mL
[11]
  MIC50: 4 µg/mL
[12]
  MIC50: 0.5 µg/mL
[13]
  MIC50: 2 µg/mL
  MIC90: 4 µg/mL
  MIC Range: 0.06 to 8 µg/mL
[14]
  MIC50: 8 µg/mL

## COc1c(N2C[C@@H]3CCCN[C@@H]3C2)c(F)cc2c(=O)c(C(=O)O)cn(C3CC3)c12 [Moxifloxacin]
[15]; S. pneumoniae Wild type
  MIC: 0.25 µg/mL (≈ 0.623 µM)
[15]; S. pneumoniae gyrA S81F
  MIC: 0.5 µg/mL (≈ 1.25 µM)
[15]; S. pneumoniae parC S79Y
  MIC: 0.25 µg/mL (≈ 0.623 µM)
[15]; S. pneumoniae parC S79Y + gyrA S81F
  MIC: 4 µg/mL
[16]; S. aureus Wild type
  MIC: 0.06 µg/mL (≈ 0.149 µM)
[16]; S. aureus parC S80F (or E84K)
  MIC: 0.5 µg/mL (≈ 1.25 µM)
[16]; S. aureus parC S80F + gyrA S84L
  MIC: 2 µg/mL
[17]; E. coli Wild type
  MIC: 0.06 µg/mL (≈ 0.149 µM)
[17]; E. coli gyrA D87Y (or S83L)
  MIC: 0.5 µg/mL (≈ 1.25 µM)
[17]; E. coli gyrA S83L + parC S80R
  MIC: 4 µg/mL
[17]; E. coli gyrA S83L + parE H445L
  MIC: 0.5 µg/mL
[17]; E. coli gyrB D426N
  MIC: 0.12 µg/mL (≈ 0.299 µM)
[18]
  MIC Range: 0.008 to 0.03 µg/mL
[18]; Haemophilus influenzae
  MIC50: 0.015 µg/mL
  MIC90: 0.03 µg/mL
[19]
  MIC50: 0.06 µg/mL
  MIC90: > 8 µg/mL
[20]
  MIC50: 0.06 µg/mL
[21]
  MIC Range: 0.03 to 2 µg/mL
[21]; Streptococcus pneumoniae
  MIC50: 0.06 µg/mL
  MIC90: 0.12 µg/mL
[22]
  MIC50: 1 µg/mL (≈ 2.49 µM)
  MIC90: 8 µg/mL (≈ 19.9 µM)
[23]
  MIC50: 0.06 µg/mL (≈ 0.149 µM)
  MIC90: 4 µg/mL (≈ 9.96 µM)
[24]
  MIC50: 1 µg/mL (≈ 2.49 µM)
  MIC90: 4 µg/mL (≈ 9.96 µM)
[25]
  MIC Range: 0.03 to 1 µg/mL
[25]; read-out: MIC50
  MIC50: 0.12 µg/mL (≈ 0.299 µM)
[25]; read-out: MIC90
  MIC90: 0.12 µg/mL (≈ 0.299 µM)
[26]
  MIC Range: 0.03 to 4 µg/mL
[26]; read-out: MIC50
  MIC50: 0.12 µg/mL (≈ 0.299 µM)
[27]
  MIC50: 0.03 µg/mL (≈ 0.0747 µM)
[28]
  MIC50: 0.06 µg/mL (≈ 0.149 µM)
  MIC90: 2 µg/mL (≈ 4.98 µM)
  MIC Range: 0.03 to 8 µg/mL
[29]
  MIC50: 0.03 µg/mL (≈ 0.0747 µM)
  MIC90: 0.06 µg/mL (≈ 0.149 µM)
[30]
  MIC50: 0.03 µg/mL (≈ 0.0747 µM)
  MIC90: 0.03 µg/mL (≈ 0.0747 µM)
  MIC Range: 0.015 to 0.12 µg/mL
[31]
  MIC90: > 8 µg/mL
[1]; clinical isolates from Asia
  MIC90: 2 µg/mL
[7]; MRSA, S. aureus MRSA-CS, N 9, read-out: MIC90 (due to limited isolates, highest MIC value is given)
  MIC90: 0.06 µg/mL
[8]; MRSE, S. epidermidis MRSE-CR, N 24, read-out: MIC90
  MIC90: > 8 µg/mL
[8]; S. epidermidis MSSE-CR, N 10, read-out: MIC90
  MIC90: 8 µg/mL
